From ChEMBL document CHEMBL1144267, “New conformationally locked bicyclic N,O-nucleoside analogues of antiviral drugs” (2005) come the findings set out here.

What all share (type): functional
The test system of test [1] is Human alphaherpesvirus 1. Kind of test: Antiviral efficacy in Vero cells infected with HSV-1 at concentration of 100 uM.
Test [2] has as its system Human alphaherpesvirus 1. Kind of test: Antiviral efficacy in Vero cells infected with HSV-1 at concentration of 200 uM.
For test [3], the system named is Human alphaherpesvirus 1. The experiment in a line: Antiviral efficacy in Vero cells infected with HSV-1 at concentration of 400 uM.
For test [4], the system named is Human alphaherpesvirus 1. Kind of test: Antiviral efficacy in Vero cells infected with HSV-1 at concentration of 800 uM.

Consider `O=c1ccn(C2CC3CCCN3O2)c(=O)[nH]1` (configuration not stated), for which the Cells killed is reported as -41% with Human alphaherpesvirus 1 [1], -55% in the test with Human alphaherpesvirus 1 [2], -70% in the test on Human alphaherpesvirus 1 [3] and -83% in the test with Human alphaherpesvirus 1 [4].
In the case of `Nc1ccn(C2CC3CCCN3O2)c(=O)n1` (configuration not stated), the Cells killed is recorded as -3% in the test with Human alphaherpesvirus 1 [1], -3% with Human alphaherpesvirus 1 [2], -6% with Human alphaherpesvirus 1 [3] and -67% in the test on Human alphaherpesvirus 1 [4].
With `Cc1cn(C2CC3CCCN3O2)c(=O)[nH]c1=O` (configuration not stated), the Cells killed with Human alphaherpesvirus 1 [1] was -5%; in the test with Human alphaherpesvirus 1 [2], -10%; in the test with Human alphaherpesvirus 1 [3], -12%; in the test on Human alphaherpesvirus 1 [4] it was -55%.
